Test results: article PMC10751319, “Bacterial extracellular vesicles: towards realistic models for bacterial membranes in molecular interaction studies by surface plasmon resonance” (Frontiers in Molecular Biosciences, 2023)
Converted amounts (≈) assume the structure as drawn. Read-outs that look alike come from different tables or passages of the source. Non-standard residues stand in square brackets, D forms with d. Residues, ends and D or L forms follow the SMILES beside them.

Key:
[1] = tested on: liposomes prepared from E. coli ΔtolA lipid isolate; assay: SPR interaction with immobilized liposomes; conditions: for koff rate constant determined by SPR / Calculated kon rate constant: Liposomes from E. coli ΔtolA lipid isolate; for koff rate constant determined by SPR: 400 s dissociation phase, Figueira et al. 2017 formalism, 25°C; for koff rate constant determined by SPR / Kd: three parallels; for Calculated kon rate constant: calculated from KD and koff (KD=koff/kon); for Kd: read-out: Dissociation constant KD determined by SPR, Liposomes from E. coli ΔtolA lipid isolate on L1 chip, Biacore T200, 25°C, 10 mM HEPES, 150 mM NaCl, steady-state fit
Text: (§2) By this, the dissociation constant KD and the disassociation rate koff were obtained. These constants allowed us to calculate kon rate, using Eq. 4.

K. pneumoniae K47-25 = type: cell-based, Klebsiella pneumoniae
Method: (§1) MIC for all test peptides was determined following EUCAST clinical standard ([Hasselmann, 2003]). Briefly, 3–4 colonies were picked by a cotton swab from freshly plated cultures on agar and resuspended in sterile saline solution. Turbidity of inoculum was adjusted to 0.5 McFarland standard units prior to ×100 dilution in Mueller-Hinton broth. Antimicrobial peptides were dissolved in the broth at the stock concentration of 512 μg/mL. […] Positive control of bacterial culture diluted with broth and negative control of blank broth were included for each bacterial strain. The MICs were determined after incubation of the plates at 37°C for 18 h and red as the concentration of antimicrobial peptide at the next to the last well where bacterial growth was detected.

bEVs from A. baumannii = assay: SPR interaction with immobilized bEVs; conditions: for koff rate constant determined by SPR / Calculated kon rate constant: A. baumannii bEVs; for koff rate constant determined by SPR: 400 s dissociation phase, Figueira et al. 2017 formalism, 25°C; for koff rate constant determined by SPR / Kd: three parallels; for Kd: read-out: Dissociation constant KD determined by SPR, A. baumannii bEVs on L1 chip, Biacore T200, 25°C, 10 mM HEPES, 150 mM NaCl, steady-state fit; for Calculated kon rate constant: calculated from KD and koff (KD=koff/kon)
Text: as §2

E. coli ΔtolA JW0729-KC = type: cell-based, Escherichia coli; conditions: Mueller-Hinton broth, 256 to 2 μg/mL, 37°C, 18 h
Method: as §1

A. baumannii K47-42 = type: cell-based, Acinetobacter baumannii
Method: as §1

[2] = strain not stated; ref Junkes et al., 2008; Bagheri, 2010; Gopal et al., 2012; Finger et al., 2015; Rainsford et al., 2022; Jakubec et al., 2023; cited from earlier work
bEVs from K. pneumoniae = assay: SPR interaction with immobilized bEVs; conditions: for koff rate constant determined by SPR / Calculated kon rate constant: K. pneumoniae bEVs; for koff rate constant determined by SPR: 400 s dissociation phase, Figueira et al. 2017 formalism, 25°C; for koff rate constant determined by SPR / Kd: three parallels; for Kd: read-out: Dissociation constant KD determined by SPR, K. pneumoniae bEVs on L1 chip, Biacore T200, 25°C, 10 mM HEPES, 150 mM NaCl, steady-state fit; for Calculated kon rate constant: calculated from KD and koff (KD=koff/kon)
Text: as §2

P. aeruginosa K34-7 = type: cell-based, Pseudomonas aeruginosa
Method: as §1

bEVs from P. aeruginosa = assay: SPR interaction with immobilized bEVs; conditions: for koff rate constant determined by SPR / Calculated kon rate constant: P. aeruginosa bEVs; for koff rate constant determined by SPR: 400 s dissociation phase, Figueira et al. 2017 formalism, 25°C; for koff rate constant determined by SPR / Kd: three parallels; for Kd: read-out: Dissociation constant KD determined by SPR, P. aeruginosa bEVs on L1 chip, Biacore T200, 25°C, 10 mM HEPES, 150 mM NaCl, steady-state fit; for Calculated kon rate constant: calculated from KD and koff (KD=koff/kon)
Text: as §2

bEVs from E. coli ΔtolA = conditions: for koff rate constant determined by SPR / Calculated kon rate constant: E. coli ΔtolA bEVs; for koff rate constant determined by SPR: 400 s dissociation phase, Figueira et al. 2017 formalism, 25°C; for koff rate constant determined by SPR / Kd: three parallels; for Calculated kon rate constant: calculated from KD and koff (KD=koff/kon); for Kd: read-out: Dissociation constant KD determined by SPR, E. coli ΔtolA bEVs on L1 chip, Biacore T200, 25°C, 10 mM HEPES, 150 mM NaCl, steady-state fit
Text: as §2

[3] = K. pneumoniae K47-25, clinical multi-resistant, Mueller-Hinton broth, 256 to 2 μg/mL, 37°C, 18 h
[4] = A. baumannii K47-42, clinical multi-resistant, Mueller-Hinton broth, 256 to 2 μg/mL, 37°C, 18 h
[5] = P. aeruginosa K34-7, clinical multi-resistant, Mueller-Hinton broth, 256 to 2 μg/mL, 37°C, 18 h

| SMILES | koff rate constant determined by SPR [1] [s⁻¹] | Calculated kon rate constant [1] [M⁻¹ s⁻¹] | Kd [1] [µM] | MIC (K. pneumoniae K47-25; [3]) [mg/L] | koff rate constant determined by SPR (bEVs from A. baumannii) [s⁻¹] | Kd (bEVs from A. baumannii) [µM] | MIC (E. coli ΔtolA JW0729-KC) [mg/L] | MIC (A. baumannii K47-42; [4]) [mg/L] | koff rate constant determined by SPR (bEVs from K. pneumoniae) [s⁻¹] | Kd (bEVs from K. pneumoniae) [µM] | koff rate constant determined by SPR (bEVs from P. aeruginosa) [s⁻¹] | Kd (bEVs from P. aeruginosa) [µM] | koff rate constant determined by SPR (bEVs from E. coli ΔtolA) [s⁻¹] | Calculated kon rate constant (bEVs from E. coli ΔtolA) [M⁻¹ s⁻¹] | Kd (bEVs from E. coli ΔtolA) [µM] | Calculated kon rate constant (bEVs from A. baumannii) [M⁻¹ s⁻¹] | Calculated kon rate constant (bEVs from K. pneumoniae) [M⁻¹ s⁻¹] | Calculated kon rate constant (bEVs from P. aeruginosa) [M⁻¹ s⁻¹] | MIC (K. pneumoniae K47-25; K47-25, 18 h) [mg/L] | MIC (A. baumannii K47-42; K47-42, 18 h) [mg/L] | further results |
| --- | --- | --- | --- | --- | --- | --- | --- | --- | --- | --- | --- | --- | --- | --- | --- | --- | --- | --- | --- | --- | --- |
| CC(C)C[C@@H]1NC(=O)[C@@H](CCCNC(=N)N)NC(=O)[C@H](CCCCN)NC(=O)[C@H](CC(N)=O)NC(=O)[C@@H](Cc2c[nH]c3ccccc23)NC(=O)[C@H](Cc2c[nH]c3ccccc23)NC1=O [c-LWwNKr, reference compound] (cyclo(LW[dW]NK[dR])) | 1.67 ± 0.45 | 2000 ± 1000 | 966 ± 170 | > 256 | 1.72 ± 0.45 | 858 ± 61.4 | > 256 | > 256 | 1.75 ± 0.55 | 1080 ± 49 | 1.78 ± 0.54 | 1040 ± 270 | 1.42 ± 0.27 | 3000 ± 1000 | 406 ± 38.1 | – | – | – | – | – | MIC (without antimicrobial activity) [2]: > 256 mg/L; MIC (P. aeruginosa K34-7; [5]): > 256 mg/L |
| NCCCC[C@@H]1NC(=O)[C@H](Cc2c[nH]c3ccccc23)NC(=O)[C@H](CCCCN)NC(=O)[C@H](Cc2c[nH]c3ccccc23)NC(=O)[C@H](CCCCN)NC(=O)[C@H](Cc2c[nH]c3ccccc23)NC1=O [c-WKWKWK] (cyclo(WKWKWK)) | 0.95 ± 0.20 | 4000 ± 1000 | 244 ± 39.5 | > 256 | 0.82 ± 0.11 | 389 ± 32.5 | 256 (≈ 271 µM) | > 256 | 1.51 ± 0.54 | 694 ± 37.3 | 1.52 ± 0.37 | 749 ± 117 | 1.42 ± 0.16 | 4000 ± 1000 | 381 ± 22.6 | 2000 ± 1000 | 2000 ± 1000 | 2000 ± 1000 | – | – | MIC (P. aeruginosa K34-7; [5]): > 256 mg/L |
| N=C(N)NCCC[C@@H]1NC(=O)[C@H](Cc2c[nH]c3ccccc23)NC(=O)[C@H](CCCNC(=N)N)NC(=O)[C@H](Cc2c[nH]c3ccccc23)NC(=O)[C@H](CCCNC(=N)N)NC(=O)[C@H](Cc2c[nH]c3ccccc23)NC1=O [c-WRWRWR] (cyclo(WRWRWR)) | – | – | – | – | – | – | 128 (≈ 125 µM) | – | – | – | – | – | – | – | – | – | – | – | > 256 | > 256 | MIC (P. aeruginosa K34-7; K34-7, 18 h): > 256 mg/L |
| NCCCC[C@@H]1NC(=O)[C@H](CCCCN)NC(=O)[C@H](Cc2c[nH]c3ccccc23)NC(=O)[C@H](Cc2c[nH]c3ccccc23)NC(=O)[C@H](Cc2c[nH]c3ccccc23)NC(=O)[C@H](CCCCN)NC1=O [c-WWWKKK] (cyclo(WWWKKK)) | 0.21 ± 0.01 | 7000 ± 1000 | 28.3 ± 4.2 | – | 0.63 ± 0.12 | 100 ± 13.1 | 4 (≈ 4.24 µM) | – | 0.37 ± 0.03 | 21 ± 0.7 | 0.62 ± 0.07 | 100 ± 4.1 | 0.62 ± 0.05 | 11000 ± 1000 | 56.5 ± 1 | 6000 ± 2000 | 18000 ± 1000 | 6000 ± 1000 | > 256 | > 256 | – |
| N=C(N)NCCC[C@@H]1NC(=O)[C@H](CCCNC(=N)N)NC(=O)[C@H](Cc2c[nH]c3ccccc23)NC(=O)[C@H](Cc2c[nH]c3ccccc23)NC(=O)[C@H](Cc2c[nH]c3ccccc23)NC(=O)[C@H](CCCNC(=N)N)NC1=O [c-WWWRRR] (cyclo(WWWRRR)) | 0.51 ± 0.08 | 11000 ± 1000 | 47.8 ± 5.2 | – | 0.40 ± 0.06 | 48.7 ± 2.7 | 4 (≈ 3.89 µM) | – | 0.28 ± 0.01 | 35.8 ± 1.3 | 0.37 ± 0.04 | 59 ± 2.6 | 0.18 ± 0.02 | 7000 ± 1000 | 27 ± 1.6 | 8000 ± 2000 | 8000 ± 1000 | 6000 ± 1000 | 256 (≈ 249 µM) | > 256 | – |
